The text below walks through data of publication PMC7525093, “Bis-Quinolinium Cyclophane Blockers of SK Potassium Channels Are Antagonists of M3 Muscarinic Acetylcholine Receptors” (Frontiers in Pharmacology, 2020).

This assay relates to aorta. Briefly: Isometric aortic ring tension measurement. Further details: species or system mouse. The note with it: 3.5 μM; precontracted to 300 nM phenylephrine. The procedure:
Mice used in these studies were BALB/C mice from Jackson Labs. All animal procedures were reviewed and approved by the University of Texas Health Science Center at San Antonio Institutional Animal Care and Use Committee. For tracheal constriction studies, animals were deeply anesthetized with isoflurane and then sacrificed by cervical dislocation. Isometric tracheal contraction measurements were performed as previously described ([Semenov et al., 2012]). Trachea were removed and surrounding tissues dissected in ice-cold physiologic saline solution (PSS) consisting of 119 mM NaCl, 4.7 mM KCl, 2.0 mM CaCl2, 1.0 mM KH2PO4, 1.17 mM MgSO4, 18 mM NaHCO3, 0.026 mM EDTA, 11 mM glucose, and 12.5 mM sucrose. Trachea were cut below the pharynx and above the primary bronchus bifurcation. Two metal wires, attached to a force transducer and micrometer (Radnoti, LLC), were threaded into the lumen of the trachea. Trachea were placed into an oxygenated organ bath (95% O2, 5% CO2), at 37°C, pH 7.35 (after bubbling with 95% O2–5% CO2). Tracheal resting tension was readjusted to 1 gram over 1 h and then challenged with 67 mM potassium PSS with NaCl adjusted to 56.7 mM to maintain proper osmolarity (KPS). Trachea were challenged two or more times until reproducible contractile responses were achieved. All subsequent experimental drug responses were normalized to the KPS response. […]

Consider `c1cc2cc(c1)C[n+]1ccc(c3ccccc31)NCc1ccc(cc1)CNc1cc[n+](c3ccccc13)C2` [UCL 1684, 6,12,19,20,25,26-Hexahydro-5,27:13,18:21,24-trietheno-11,7-metheno-7H-dibenzo [b,n] [1,5,12,16]tetraazacyclotricosine-5,13-diium dibromide], for which the “Relaxation response of aorta” value is recorded as 7.8 ± 4.3.
